From patent US20250270172A1, “Pyrimidine Derivatives As Modulators of the 5-HT2A Serotonin Receptor Useful For The Treatment of Disorders Related Thereto” (Arena Pharmaceuticals, Inc., priority 2020, published 2025)
Where “and” joins values, the source holds several entries; their conditions need not be identical. Identical values can stand only once. Like-named read-outs stand apart in the source and are kept apart here.

Experiments:
5-HT2A [1] = target: T1, 5-HT2A (Homo sapiens (Human), UniProt P28223); assay: Radioligand binding assay, [^3H]5-HT competition, 5-HT2A; settings: read-out: 5-HT2A serotonin binding Ki value
5-HT2A [2] = target: T1, 5-HT2A; assay: HTRF IP-One antagonist assay, 5-HT2A; assay type: cell-based; settings: HEK293 cells stably expressing receptor, inositol phosphate accumulation, 80 nM 5-HT in Assay Buffer;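 further: clonal line with low receptor density (about 50–70 fmol/mg), 10-point dose-response from 10 µM in 5-fold steps, HTRF detection after 1 hr, triplicate points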
5-HT2B = 5-HT2B (Homo sapiens (Human), UniProt P41595); assay: HTRF IP-One antagonist assay, 5-HT2B; assay type: cell-based; settings: HEK293 cells stably expressing receptor, inositol phosphate accumulation, 80 nM 5-HT in Assay Buffer;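 further: clonal HEK293 line with low 5-HT2B expression (estimated 150-200 fmol/mg by radioligand binding), IP-One HTRF readout, 10-point curves from 10 µM in 5-fold steps, triplicate points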
5-HT2C = 5-HT2C (Homo sapiens (Human), UniProt P28335); assay: HTRF IP-One antagonist assay, 5-HT2C; assay type: cell-based; settings: HEK293 cells stably expressing receptor, inositol phosphate accumulation, 80 nM 5-HT in Assay Buffer;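 further: clonal HEK293 line with low 5-HT2C density (10–20 fmol/mg), HTRF detection of IP-One, 10-point dose curves from 10 µM in 5-fold steps, triplicate points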
[3] = [^3H]5-HT radioligand, membranes of HEK293 cells expressing recombinant 5-HT2A, Ki from IC50 by Cheng-Prusoff

T1 sequence (P28223 whole entry): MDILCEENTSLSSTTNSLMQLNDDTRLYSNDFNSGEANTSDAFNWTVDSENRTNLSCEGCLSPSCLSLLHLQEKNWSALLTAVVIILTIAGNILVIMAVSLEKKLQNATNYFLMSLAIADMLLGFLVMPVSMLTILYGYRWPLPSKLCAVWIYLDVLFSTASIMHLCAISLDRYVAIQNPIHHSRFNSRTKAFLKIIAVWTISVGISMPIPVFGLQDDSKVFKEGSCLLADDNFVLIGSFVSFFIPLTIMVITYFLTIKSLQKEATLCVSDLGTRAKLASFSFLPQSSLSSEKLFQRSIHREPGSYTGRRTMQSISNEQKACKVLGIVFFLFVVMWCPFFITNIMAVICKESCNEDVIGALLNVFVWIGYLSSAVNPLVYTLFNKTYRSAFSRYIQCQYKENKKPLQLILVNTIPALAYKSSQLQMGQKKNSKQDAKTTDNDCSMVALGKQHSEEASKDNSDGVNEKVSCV
Chain of 5-HT2B (P41595 whole entry): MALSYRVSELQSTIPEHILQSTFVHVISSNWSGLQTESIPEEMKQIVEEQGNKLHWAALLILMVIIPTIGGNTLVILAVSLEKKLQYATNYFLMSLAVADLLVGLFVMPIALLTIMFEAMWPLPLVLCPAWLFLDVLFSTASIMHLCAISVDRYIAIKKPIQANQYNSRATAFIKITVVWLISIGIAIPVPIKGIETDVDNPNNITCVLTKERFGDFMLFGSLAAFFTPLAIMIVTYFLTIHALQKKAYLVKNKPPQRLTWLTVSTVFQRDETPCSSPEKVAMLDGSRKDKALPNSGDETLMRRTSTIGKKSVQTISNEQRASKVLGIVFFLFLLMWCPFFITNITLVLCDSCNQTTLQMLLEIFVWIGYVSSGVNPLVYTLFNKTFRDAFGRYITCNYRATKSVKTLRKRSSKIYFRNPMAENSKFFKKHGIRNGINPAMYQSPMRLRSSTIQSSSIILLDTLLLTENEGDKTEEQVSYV
Chain of 5-HT2C (P28335 33-458): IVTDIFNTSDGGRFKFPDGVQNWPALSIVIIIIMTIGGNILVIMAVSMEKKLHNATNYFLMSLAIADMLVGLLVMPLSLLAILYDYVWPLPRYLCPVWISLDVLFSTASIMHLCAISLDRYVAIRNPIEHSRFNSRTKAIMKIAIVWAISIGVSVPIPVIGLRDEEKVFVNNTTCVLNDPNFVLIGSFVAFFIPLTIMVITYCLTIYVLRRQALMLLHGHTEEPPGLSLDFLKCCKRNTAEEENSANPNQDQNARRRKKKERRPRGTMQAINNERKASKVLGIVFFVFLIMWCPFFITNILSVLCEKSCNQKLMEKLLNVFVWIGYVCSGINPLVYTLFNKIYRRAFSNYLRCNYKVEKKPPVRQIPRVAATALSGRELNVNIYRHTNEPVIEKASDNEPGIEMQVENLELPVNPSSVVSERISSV

SMILES: Cc1ncsc1CC(=O)Nc1ccc(OCCN2CCCC2)c(-c2c(C)ncnc2C)c1 [Compound 250, N-(3-(4,6-dimethylpyrimidin-5-yl)-4-(2-(pyrrolidin-1-yl)ethoxy)phenyl)-2-(4-methylthiazol-5-yl)acetamide]
- Ki (5-HT2A [1]; [3]): 9.04 nM
- IC50 (5-HT2A [2]): 13.9 nM
- IC50 (5-HT2B): 100000 nM
- IC50 (5-HT2C): 100000 nM

SMILES: Cc1ncnc(C)c1-c1cc(NC(=O)CCc2nccs2)ccc1OCCN1CCCC1 [Compound 256, N-(3-(4,6-dimethylpyrimidin-5-yl)-4-(2-(pyrrolidin-1-yl)ethoxy)phenyl)-3-(thiazol-2-yl)propanamide]
- Ki (5-HT2A [1]; [3]): 9.89 nM
- IC50 (5-HT2A [2]): 56 nM
- IC50 (5-HT2B): 100000 nM
- IC50 (5-HT2C): 100000 nM

SMILES: Cc1ncnc(C)c1-c1cc(NC(=O)CCc2cncs2)ccc1OCCN1CCCC1 [Compound 257, N-(3-(4,6-dimethylpyrimidin-5-yl)-4-(2-(pyrrolidin-1-yl)ethoxy)phenyl)-3-(thiazol-5-yl)propanamide]
- Ki (5-HT2A [1]; [3]): 14.8 nM
- IC50 (5-HT2A [2]): 33.5 nM
- IC50 (5-HT2B): 100000 nM
- IC50 (5-HT2C): 100000 nM

SMILES: Cc1ncnc(C)c1-c1cc(NC(=O)Cc2ccno2)ccc1OCCN1CCCC1 [Compound 263, N-(3-(4,6-dimethylpyrimidin-5-yl)-4-(2-(pyrrolidin-1-yl)ethoxy)phenyl)-2-(isoxazol-5-yl)acetamide]
- Ki (5-HT2A [1]; [3]): 10.1 nM
- IC50 (5-HT2A [2]): 35.9 nM
- IC50 (5-HT2B): 100000 nM
- IC50 (5-HT2C): 100000 nM

SMILES: Cc1ncc(CC(=O)Nc2ccc(OCCN3CCCC3)c(-c3c(C)ncnc3C)c2)s1 [Compound 266, N-(3-(4,6-dimethylpyrimidin-5-yl)-4-(2-(pyrrolidin-1-yl)ethoxy)phenyl)-2-(2-methylthiazol-5-yl)acetamide]
- Ki (5-HT2A [1]; [3]): 4.11 nM
- IC50 (5-HT2A [2]): 5.23 nM
- IC50 (5-HT2B): 100000 nM
- IC50 (5-HT2C): 100000 nM

SMILES: Cc1ncnc(C)c1-c1cc(NC(=O)Cc2ccn(C)c2)ccc1OCCN1CCCC1 [Compound 268, N-[3-(4,6-dimethylpyrimidin-5-yl)-4-(2-pyrrolidin-1-ylethoxy)phenyl]-2-(1-methylpyrrol-3-yl)acetamide]
- Ki (5-HT2A [1]; [3]): 7.78 nM
- IC50 (5-HT2A [2]): 62.4 nM
- IC50 (5-HT2B): 100000 nM
- IC50 (5-HT2C): 100000 nM

SMILES: Cc1ncnc(C)c1-c1cc(NC(=O)c2ccccc2)ccc1OCCN1CCCC1 [Compound 271, N-[3-(4,6-dimethylpyrimidin-5-yl)-4-(2-pyrrolidin-1-ylethoxy)phenyl]benzamide]
- Ki (5-HT2A [1]; [3]): 3.26 nM
- IC50 (5-HT2A [2]): 6.1 nM
- IC50 (5-HT2B): 100000 nM
- IC50 (5-HT2C): 100000 nM

SMILES: Cc1ncnc(C)c1-c1cc(NC(=O)c2ccc(F)cc2)ccc1OCCN1CCCC1 [Compound 272, N-(3-(4,6-dimethylpyrimidin-5-yl)-4-(2-(pyrrolidin-1-yl)ethoxy)phenyl)-4-fluorobenzamide]
- Ki (5-HT2A [1]; [3]): 2.43 nM
- IC50 (5-HT2A [2]): 7.8 nM
- IC50 (5-HT2B): 2680 nM
- IC50 (5-HT2C): 100000 nM

SMILES: Cc1ncnc(C)c1-c1cc(NC(=O)Cc2cccc(F)c2)ccc1OCCN1CCCC1 [Compound 275, N-(3-(4,6-dimethylpyrimidin-5-yl)-4-(2-(pyrrolidin-1-yl)ethoxy)phenyl)-2-(3-fluorophenyl)acetamide]
- Ki (5-HT2A [1]; [3]): 1.7 nM
- IC50 (5-HT2A [2]): 6.32 nM
- IC50 (5-HT2B): 100000 nM
- IC50 (5-HT2C): 100000 nM

SMILES: COc1ccc(CC(=O)Nc2ccc(OCCN3CCCC3)c(-c3c(C)ncnc3C)c2)cc1 [Compound 276, N-(3-(4,6-dimethylpyrimidin-5-yl)-4-(2-(pyrrolidin-1-yl)ethoxy)phenyl)-2-(4-methoxyphenyl)acetamide]
- Ki (5-HT2A [1]; [3]): 0.843 nM
- IC50 (5-HT2A [2]): 3.07 nM
- IC50 (5-HT2B): 100000 nM
- IC50 (5-HT2C): 100000 nM

SMILES: Cc1ncnc(C)c1-c1cc(NC(=O)c2c(F)cnn2C)ccc1OCCN1CCCC1 [Compound 290, N-[3-(4,6-dimethylpyrimidin-5-yl)-4-(2-pyrrolidin-1-ylethoxy)phenyl]-4-fluoro-2-methyl-pyrazole-3-carboxamide]
- Ki (5-HT2A [1]; [3]): 3.86 nM
- IC50 (5-HT2A [2]): 7.36 nM
- IC50 (5-HT2B): 100000 nM
- IC50 (5-HT2C): 100000 nM

SMILES: CCOC1CC1C(=O)Nc1ccc(OCCN2CCCC2)c(-c2c(C)ncnc2C)c1 (stereo not shown) [Compound 291, N-(3-(4,6-dimethylpyrimidin-5-yl)-4-(2-(pyrrolidin-1-yl)ethoxy)phenyl)-2-ethoxycyclopropane-1-carboxamide]
- Ki (5-HT2A [1]; [3]): 5.04 nM and 15.5 nM
- IC50 (5-HT2A [2]): 9.75 nM
- IC50 (5-HT2B): 100000 nM
- IC50 (5-HT2C): 100000 nM

SMILES: Cc1ncnc(C)c1-c1cc(NC(=O)C2(CF)CC2)ccc1OCCN1CCCC1 [Compound 293, N-(3-(4,6-dimethylpyrimidin-5-yl)-4-(2-(pyrrolidin-1-yl)ethoxy)phenyl)-1-(fluoromethyl)cyclopropane-1-carboxamide]
- Ki (5-HT2A [1]; [3]): 8.56 nM
- IC50 (5-HT2A [2]): 15.9 nM
- IC50 (5-HT2B): 9370 nM
- IC50 (5-HT2C): 100000 nM

SMILES: Cc1ncnc(C)c1-c1cc(NC(=O)c2ccnn2C)ccc1OCCN1CCC1 [Compound 304, N-[4-[2-(azetidin-1-yl)ethoxy]-3-(4,6-dimethylpyrimidin-5-yl)phenyl]-2-methyl-pyrazole-3-carboxamide]
- Ki (5-HT2A [1]; [3]): 7.25 nM
- IC50 (5-HT2A [2]): 8.86 nM
- IC50 (5-HT2B): 100000 nM
- IC50 (5-HT2C): 100000 nM

SMILES: Cc1ncnc(C)c1-c1cc(NC(=O)C2(F)CC2)ccc1OCCN1CCC1 [Compound 305, N-(4-(2-(azetidin-1-yl)ethoxy)-3-(4,6-dimethylpyrimidin-5-yl)phenyl)-1-fluorocyclopropane-1-carboxamide]
- Ki (5-HT2A [1]; [3]): 2.61 nM
- IC50 (5-HT2A [2]): 4.44 nM
- IC50 (5-HT2B): 100000 nM
- IC50 (5-HT2C): 100000 nM

SMILES: Cc1ncsc1CC(=O)Nc1ccc(OCCN2CCC2)c(-c2c(C)ncnc2C)c1 [Compound 307, N-(4-(2-(azetidin-1-yl)ethoxy)-3-(4,6-dimethylpyrimidin-5-yl)phenyl)-2-(4-methylthiazol-5-yl)acetamide]
- Ki (5-HT2A [1]): 5.89 nM
- IC50 (5-HT2A [2]): 9.84 nM
- IC50 (5-HT2B): ≥ 100000 nM
- IC50 (5-HT2C): 100000 nM

SMILES: Cc1ncnc(C)c1-c1cc(NC(=O)c2ccccc2)ccc1OCCN1CCC1 [Compound 308, N-(4-(2-(azetidin-1-yl)ethoxy)-3-(4,6-dimethylpyrimidin-5-yl)phenyl)benzamide]
- Ki (5-HT2A [1]; [3]): 3.28 nM
- IC50 (5-HT2A [2]): 14.7 nM
- IC50 (5-HT2B): 100000 nM
- IC50 (5-HT2C): 100000 nM

SMILES: Cc1ncnc(C)c1-c1cc(NC(=O)c2ccc(F)cc2)ccc1OCCN1CCC1 [Compound 309, N-(4-(2-(azetidin-1-yl)ethoxy)-3-(4,6-dimethylpyrimidin-5-yl)phenyl)-4-fluorobenzamide]
- Ki (5-HT2A [1]; [3]): 1.71 nM
- IC50 (5-HT2A [2]): 6.32 nM
- IC50 (5-HT2B): 806 nM
- IC50 (5-HT2C): 100000 nM

SMILES: COc1cccc(C(=O)Nc2ccc(OCCN3CCC3)c(-c3c(C)ncnc3C)c2)c1 [Compound 310, N-(4-(2-(azetidin-1-yl)ethoxy)-3-(4,6-dimethylpyrimidin-5-yl)phenyl)-3-methoxybenzamide]
- Ki (5-HT2A [1]; [3]): 1.58 nM
- IC50 (5-HT2A [2]): 3.31 nM
- IC50 (5-HT2B): 1910 nM
- IC50 (5-HT2C): 100000 nM

SMILES: Cc1ncnc(C)c1-c1cc(NC(=O)Cc2cncc(F)c2)ccc1OCCN1CCC1 [Compound 314, N-(4-(2-(azetidin-1-yl)ethoxy)-3-(4,6-dimethylpyrimidin-5-yl)phenyl)-2-(5-fluoropyridin-3-yl)acetamide]
- Ki (5-HT2A [1]; [3]): 5.42 nM
- IC50 (5-HT2A [2]): 15.3 nM
- IC50 (5-HT2B): 100000 nM
- IC50 (5-HT2C): 100000 nM

SMILES: Cc1ncnc(C)c1-c1cc(NC(=O)c2c(F)cnn2C)ccc1OCCN1CCC1 [Compound 316, N-(4-(2-(azetidin-1-yl)ethoxy)-3-(4,6-dimethylpyrimidin-5-yl)phenyl)-4-fluoro-1-methyl-1H-pyrazole-5-carboxamide]
- Ki (5-HT2A [1]; [3]): 4.98 nM
- IC50 (5-HT2A [2]): 6.99 nM
- IC50 (5-HT2B): 3190 nM
- IC50 (5-HT2C): 100000 nM

SMILES: COc1ccc(C(=O)Nc2ccc(OCCN3CCC3)c(-c3c(C)ncnc3C)c2)cc1 [Compound 318, N-(4-(2-(azetidin-1-yl)ethoxy)-3-(4,6-dimethylpyrimidin-5-yl)phenyl)-4-methoxybenzamide]
- Ki (5-HT2A [1]; [3]): 4.09 nM
- IC50 (5-HT2A [2]): 16.8 nM
- IC50 (5-HT2B): 4500 nM
- IC50 (5-HT2C): 100000 nM

SMILES: Cc1ncnc(C)c1-c1cc(NC(=O)c2ccccc2F)ccc1OCCN1CCC1 [Compound 319, N-(4-(2-(azetidin-1-yl)ethoxy)-3-(4,6-dimethylpyrimidin-5-yl)phenyl)-2-fluorobenzamide]
- Ki (5-HT2A [1]; [3]): 3.62 nM
- IC50 (5-HT2A [2]): 14.3 nM
- IC50 (5-HT2B): 2360 nM
- IC50 (5-HT2C): 100000 nM

SMILES: Cc1ncnc(C)c1-c1cc(NC(=O)c2cccc(C#N)c2)ccc1OCCN1CCC1 [Compound 325, N-(4-(2-(azetidin-1-yl)ethoxy)-3-(4,6-dimethylpyrimidin-5-yl)phenyl)-3-cyanobenzamide]
- Ki (5-HT2A [1]; [3]): 1.7 nM
- IC50 (5-HT2A [2]): 8.54 nM
- IC50 (5-HT2B): 2890 nM
- IC50 (5-HT2C): 100000 nM

SMILES: Cc1ncnc(C)c1-c1cc(NC(=O)C2CC2)ccc1OCCN1CCC1 [Compound 344, N-(4-(2-(azetidin-1-yl)ethoxy)-3-(4,6-dimethylpyrimidin-5-yl)phenyl)cyclopropanecarboxamide]
- Ki (5-HT2A [1]; [3]): 6.53 nM
- IC50 (5-HT2A [2]): 10.2 nM
- IC50 (5-HT2B): 1210 nM
- IC50 (5-HT2C): 100000 nM

SMILES: COC1CCN(CCOc2ccc(NC(=O)C3CC3)cc2-c2c(C)ncnc2C)CC1 [Compound 351, N-(3-(4,6-dimethylpyrimidin-5-yl)-4-(2-(4-methoxypiperidin-1-yl)ethoxy)phenyl)cyclopropanecarboxamide]
- Ki (5-HT2A [1]; [3]): 4.56 nM
- IC50 (5-HT2A [2]): 7.03 nM
- IC50 (5-HT2B): 100000 nM
- IC50 (5-HT2C): 100000 nM

SMILES: CO[C@@H]1CCN(CCOc2ccc(NC(=O)C3CC3)cc2-c2c(C)ncnc2C)C1 [Compound 353, (R)—N-(3-(4,6-dimethylpyrimidin-5-yl)-4-(2-(3-methoxypyrrolidin-1-yl)ethoxy)phenyl)cyclopropanecarboxamide]
- Ki (5-HT2A [1]; [3]): 4.06 nM
- IC50 (5-HT2A [2]): 24.8 nM
- IC50 (5-HT2B): 100000 nM
- IC50 (5-HT2C): 100000 nM

SMILES: COCCNCCOc1ccc(NC(=O)C2CC2)cc1-c1c(C)ncnc1C [Compound 361, N-(3-(4,6-dimethylpyrimidin-5-yl)-4-(2-((2-methoxyethyl)amino)ethoxy)phenyl)cyclopropanecarboxamide]
- Ki (5-HT2A [1]; [3]): 4.33 nM
- IC50 (5-HT2A [2]): 9.27 nM
- IC50 (5-HT2B): 100000 nM
- IC50 (5-HT2C): 100000 nM
